Activity calls are given as the source filed them. The calls are words filed in the database; no cut-off is given here.
Experiments:
[1] = molecular target: Metabotropic glutamate receptor 5 (Homo sapiens, UniProt P41594); test: Antagonist activity at human mGluR5 receptor expressed in CHOK1 cells assessed as inhibition of glutamate-mediated internal calcium mobilization; format: functional, cell-based, CHO-K1
[2] = molecular target: Metabotropic glutamate receptor 1 (Homo sapiens) (UniProt Q13255); test: Antagonist activity at human mGluR1 receptor expressed in CHOK1 cells assessed as inhibition of glutamate-mediated internal calcium mobilization; format: functional, cell-based; conditions: CHO-K1
Chain of Metabotropic glutamate receptor 1 (Homo sapiens) (Q13255 19-1194 limits assumed): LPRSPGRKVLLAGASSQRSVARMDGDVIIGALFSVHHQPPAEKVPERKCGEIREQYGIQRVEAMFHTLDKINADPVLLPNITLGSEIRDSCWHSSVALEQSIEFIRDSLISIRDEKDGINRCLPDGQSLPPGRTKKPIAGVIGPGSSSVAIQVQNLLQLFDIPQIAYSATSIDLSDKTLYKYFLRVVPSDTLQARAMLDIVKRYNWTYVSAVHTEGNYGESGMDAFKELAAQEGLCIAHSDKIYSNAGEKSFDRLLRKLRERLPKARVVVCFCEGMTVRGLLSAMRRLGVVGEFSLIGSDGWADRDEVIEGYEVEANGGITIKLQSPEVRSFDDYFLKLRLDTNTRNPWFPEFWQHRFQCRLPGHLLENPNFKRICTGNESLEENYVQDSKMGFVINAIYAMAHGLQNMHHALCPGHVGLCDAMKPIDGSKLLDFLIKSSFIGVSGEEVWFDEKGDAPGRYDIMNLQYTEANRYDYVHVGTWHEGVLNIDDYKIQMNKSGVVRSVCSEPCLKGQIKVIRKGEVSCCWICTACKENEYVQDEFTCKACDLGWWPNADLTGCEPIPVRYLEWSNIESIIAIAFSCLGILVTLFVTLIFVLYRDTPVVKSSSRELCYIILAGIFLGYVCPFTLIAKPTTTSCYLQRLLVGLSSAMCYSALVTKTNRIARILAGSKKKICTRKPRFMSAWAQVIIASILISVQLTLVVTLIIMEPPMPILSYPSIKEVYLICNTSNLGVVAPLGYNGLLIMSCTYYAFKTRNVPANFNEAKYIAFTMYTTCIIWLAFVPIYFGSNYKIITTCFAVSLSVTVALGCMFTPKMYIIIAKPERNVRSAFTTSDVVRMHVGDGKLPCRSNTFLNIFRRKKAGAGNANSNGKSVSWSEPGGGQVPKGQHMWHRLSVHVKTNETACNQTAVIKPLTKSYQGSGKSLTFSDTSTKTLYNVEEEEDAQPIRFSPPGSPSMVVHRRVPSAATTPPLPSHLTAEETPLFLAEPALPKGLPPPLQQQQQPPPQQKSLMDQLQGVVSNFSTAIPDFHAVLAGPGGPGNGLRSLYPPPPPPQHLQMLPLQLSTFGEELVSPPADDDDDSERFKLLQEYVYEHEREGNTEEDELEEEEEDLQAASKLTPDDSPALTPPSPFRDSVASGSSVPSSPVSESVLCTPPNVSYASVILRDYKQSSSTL

Chain of Metabotropic glutamate receptor 5 (P41594 whole entry): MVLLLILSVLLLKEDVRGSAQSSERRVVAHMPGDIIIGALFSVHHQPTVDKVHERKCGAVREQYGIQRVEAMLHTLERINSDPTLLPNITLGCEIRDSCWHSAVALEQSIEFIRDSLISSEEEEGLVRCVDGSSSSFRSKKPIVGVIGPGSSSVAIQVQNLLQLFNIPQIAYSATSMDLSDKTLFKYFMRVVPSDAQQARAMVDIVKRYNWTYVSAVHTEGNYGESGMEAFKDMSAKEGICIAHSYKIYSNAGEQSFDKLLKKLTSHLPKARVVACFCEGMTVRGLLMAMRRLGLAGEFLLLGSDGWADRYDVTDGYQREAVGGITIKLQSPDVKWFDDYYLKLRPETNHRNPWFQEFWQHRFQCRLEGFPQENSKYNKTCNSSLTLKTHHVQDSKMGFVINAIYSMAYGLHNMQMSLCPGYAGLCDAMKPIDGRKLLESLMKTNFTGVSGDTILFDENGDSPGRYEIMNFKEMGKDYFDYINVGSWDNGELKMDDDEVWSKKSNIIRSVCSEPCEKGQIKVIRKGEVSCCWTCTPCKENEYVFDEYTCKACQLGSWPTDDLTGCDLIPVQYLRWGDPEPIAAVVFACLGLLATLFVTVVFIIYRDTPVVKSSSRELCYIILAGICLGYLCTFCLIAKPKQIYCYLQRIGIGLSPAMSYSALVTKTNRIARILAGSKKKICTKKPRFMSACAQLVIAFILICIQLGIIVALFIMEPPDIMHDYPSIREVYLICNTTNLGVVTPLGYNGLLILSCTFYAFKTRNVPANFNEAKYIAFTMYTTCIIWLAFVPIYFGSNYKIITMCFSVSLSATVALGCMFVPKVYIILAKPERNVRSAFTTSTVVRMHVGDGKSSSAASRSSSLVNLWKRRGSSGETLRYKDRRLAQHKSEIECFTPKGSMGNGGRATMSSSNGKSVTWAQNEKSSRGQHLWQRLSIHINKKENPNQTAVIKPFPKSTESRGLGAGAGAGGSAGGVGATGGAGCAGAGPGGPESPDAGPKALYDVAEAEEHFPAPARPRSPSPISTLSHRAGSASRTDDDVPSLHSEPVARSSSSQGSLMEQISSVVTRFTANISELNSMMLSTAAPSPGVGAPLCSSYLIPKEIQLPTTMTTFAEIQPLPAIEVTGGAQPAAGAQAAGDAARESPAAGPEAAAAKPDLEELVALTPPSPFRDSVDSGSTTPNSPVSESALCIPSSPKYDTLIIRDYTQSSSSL

| Structure (SMILES) | IC50 ([1]; cho-k1) | Activity [2] | IC50 ([1]; read-out: IC50) [µM] |
| --- | --- | --- | --- |
| Cc1cnnc(C#Cc2cc(C(F)(F)F)cc(C(F)(F)F)c2)n1 | Not Active | – | – |
| Cc1cnc(C#Cc2ccccc2)nn1 | Not Active | – | – |
| Cc1cnnc(C#Cc2ccc(-c3ccccc3)cc2)n1 | – | inactive | 0.51 |
| Cc1cnnc(C#Cc2cccc(C#N)c2)n1 | – | inactive | 0.052 |
| Cc1ccc(C)c(C#Cc2nncc(C)n2)c1 | – | inactive | 1.89 |
| Cc1cnnc(C#Cc2cccc3ccccc23)n1 | – | inactive | 8.9 |
| Cc1cnnc(C#Cc2ccccc2C)n1 | Not Active | – | – |
| Cc1cnnc(C#Cc2ccccc2)n1 | – | inactive | 0.14 |
| Cc1cnnc(C#Cc2ccc3ccccc3c2)n1 | Not Active | – | – |
| Cc1cnnc(C#Cc2ccc(C(F)(F)F)cc2)n1 | Not Active | – | – |
| Cc1cccc(C#Cc2nncc(C)n2)c1 | – | inactive | 0.0023 |
| Cc1cnnc(C#Cc2cccc(Br)c2)n1 | – | inactive | 0.006 |
| COc1ccc(C#Cc2nncc(C)n2)c(C)c1 | Not Active | – | – |
| Cc1cnnc(C#Cc2ccc3c(c2)OCO3)n1 | Not Active | – | – |
| Cc1cnnc(C#Cc2cccc(C(F)(F)F)c2)n1 | – | inactive | 0.085 |
| Cc1cnnc(C#Cc2ccc(F)c(C)c2)n1 | – | inactive | 0.132 |
| Cc1cnnc(C#Cc2ccc(F)cc2F)n1 | Not Active | – | – |
| Cc1cnnc(C#Cc2cccc(F)c2)n1 | – | inactive | 0.096 |
| Cc1nncc(C#Cc2ccccc2)n1 | Not Active | – | – |
| Cc1cnnc(C#Cc2cccc(Cl)c2)n1 | – | inactive | 0.0042 |
| COc1ccccc1C#Cc1nncc(C)n1 | Not Active | – | – |
| COc1cccc(C#Cc2nncc(C)n2)c1 | – | inactive | 0.312 |
| Cc1cnnc(C#Cc2ccc(Oc3ccccc3)cc2)n1 | – | inactive | 0.08 |

Reference: ChEMBL document CHEMBL1145423, “Synthesis and pharmacological evaluation of phenylethynyl[1,2,4]methyltriazines as analogues of 3-methyl-6-(phenylethynyl)pyridine” (J Med Chem, 2007)
